Test results taken from patent US20240226125A1, “USE OF SOTAGLIFLOZIN FOR THE TREATMENT OF PATIENTS WITH TYPE 1 DIABETES MELLITUS” (priority 2019, published 2024).

System: adult patients with Type 1 Diabetes Mellitus who have inadequate glycemic control with insulin therapy
Assay: inTandem 1 and inTandem 2 pooled double-blind placebo-controlled clinical studies, efficacy
Assay type: in vivo, human
[1] = 200 mg vs placebo, Baseline BMI <27 kg/m^2, Week 24
[2] = 200 mg vs placebo, Baseline BMI <27 kg/m^2, Week 52
[3] = 200 mg vs placebo, Baseline BMI ≥27 kg/m^2, Week 24
[4] = 200 mg vs placebo, Baseline BMI ≥27 kg/m^2, Week 52
[5] = 200 mg, Baseline BMI <27 kg/m^2, Week 24
[6] = 200 mg, Baseline BMI <27 kg/m^2, Week 52
[7] = 200 mg, Baseline BMI ≥27 kg/m^2, Week 24
[8] = 200 mg, Baseline BMI ≥27 kg/m^2, Week 52
[9] = 400 mg vs placebo, Baseline BMI <27 kg/m^2, Week 24
[10] = 400 mg vs placebo, Baseline BMI <27 kg/m^2, Week 52
[11] = 400 mg vs placebo, Baseline BMI ≥27 kg/m^2, Week 24
[12] = 400 mg vs placebo, Baseline BMI ≥27 kg/m^2, Week 52
[13] = 400 mg, Baseline BMI <27 kg/m^2, Week 24

Structure (SMILES): CCOc1ccc(Cc2cc([C@@H]3O[C@H](SC)[C@@H](O)[C@H](O)[C@H]3O)ccc2Cl)cc1 [sotagliflozin, (2S,3R,4R,5S,6R)-2-(4-chloro-3-(4-ethoxybenzyl)phenyl)-6-(methylthio)tetrahydro-2H-pyran-3,4,5-triol]
- 2-hour postprandial plasma glucose (mg/dL) LS Mean Difference (SE) [1]: −66.0 (20.22) mg/dL
- A1C (%) LS Mean Difference (SE) [1]: −0.32 (0.062) %
- Body weight (kg) LS Mean Difference (SE) [1]: −2.06 (0.240) kg
- DDS2 (score) LS Mean Difference (SE) [1]: −0.4 (0.16) score
- DTSQ (score) LS Mean Difference (SE) [1]: 1.7 (0.42) score
- Fasting plasma glucose (mg/dL) LS Mean Difference (SE) [1]: −15.7 (5.69) mg/dL
- SBP (mmHg) LS Mean Difference (SE) [1]: −3.1 (0.97) mmHg
- Time in range (%) LS Mean Difference (SE) [1]: 1.638 (3.8450) %
- A1C (%) LS Mean Difference (SE) [2]: −0.20 (0.078) %
- Body weight (kg) LS Mean Difference (SE) [2]: −2.26 (0.317) kg
- SBP (mmHg) LS Mean Difference (SE) [2]: −4.1 (1.05) mmHg
- 2-hour postprandial plasma glucose (mg/dL) LS Mean Difference (SE) [3]: −19.0 (14.71) mg/dL
- A1C (%) LS Mean Difference (SE) [3]: −0.39 (0.046) %
- Body weight (kg) LS Mean Difference (SE) [3]: −2.27 (0.272) kg
- DDS2 (score) LS Mean Difference (SE) [3]: −0.6 (0.13) score
- DTSQ (score) LS Mean Difference (SE) [3]: 2.6 (0.35) score
- Fasting plasma glucose (mg/dL) LS Mean Difference (SE) [3]: −15.7 (4.57) mg/dL
- SBP (mmHg) LS Mean Difference (SE) [3]: −1.3 (0.87) mmHg
- Time in range (%) LS Mean Difference (SE) [3]: 8.171 (2.9713) %
- A1C (%) LS Mean Difference (SE) [4]: −0.24 (0.056) %
- Body weight (kg) LS Mean Difference (SE) [4]: −3.01 (0.357) kg
- SBP (mmHg) LS Mean Difference (SE) [4]: −2.1 (0.90) mmHg
- 2-hour postprandial plasma glucose (mg/dL) LS Mean change (SE) [5]: −49.5 (17.63) mg/dL
- A1C (%) LS Mean change (SE) [5]: −0.38 (0.047) %
- Body weight (kg) LS Mean change (SE) [5]: −1.43 (0.177) kg
- DDS2 (score) LS Mean change (SE) [5]: −0.2 (0.13) score
- DTSQ (score) LS Mean change (SE) [5]: 1.7 (0.33) score
- Fasting plasma glucose (mg/dL) LS Mean change (SE) [5]: −10.8 (4.22) mg/dL
- SBP (mmHg) LS Mean change (SE) [5]: −3.0 (0.74) mmHg
- Time in range (%) LS Mean change (SE) [5]: −0.532 (2.9540) %
- A1C (%) LS Mean change (SE) [6]: −0.19 (0.057) %
- Body weight (kg) LS Mean change (SE) [6]: −1.57 (0.230) kg
- SBP (mmHg) LS Mean change (SE) [6]: −1.4 (0.79) mmHg
- 2-hour postprandial plasma glucose (mg/dL) LS Mean change (SE) [7]: −36.8 (11.72) mg/dL
- A1C (%) LS Mean change (SE) [7]: −0.43 (0.034) %
- Body weight (kg) LS Mean change (SE) [7]: −1.93 (0.196) kg
- DDS2 (score) LS Mean change (SE) [7]: −0.5 (0.10) score
- DTSQ (score) LS Mean change (SE) [7]: 2.3 (0.26) score
- Fasting plasma glucose (mg/dL) LS Mean change (SE) [7]: −9.3 (3.33) mg/dL
- SBP (mmHg) LS Mean change (SE) [7]: −2.9 (0.64) mmHg
- Time in range (%) LS Mean change (SE) [7]: 6.254 (2.1983) %
- A1C (%) LS Mean change (SE) [8]: −0.24 (0.041) %
- Body weight (kg) LS Mean change (SE) [8]: −2.16 (0.254) kg
- SBP (mmHg) LS Mean change (SE) [8]: −1.7 (0.66) mmHg
- 2-hour postprandial plasma glucose (mg/dL) LS Mean Difference (SE) [9]: −86.1 (21.27) mg/dL
- A1C (%) LS Mean Difference (SE) [9]: −0.27 (0.063) %
- Body weight (kg) LS Mean Difference (SE) [9]: −2.55 (0.243) kg
- DDS2 (score) LS Mean Difference (SE) [9]: −0.5 (0.16) score
- DTSQ (score) LS Mean Difference (SE) [9]: 1.5 (0.43) score
- Fasting plasma glucose (mg/dL) LS Mean Difference (SE) [9]: −16.4 (5.78) mg/dL
- SBP (mmHg) LS Mean Difference (SE) [9]: −3.5 (0.98) mmHg
- Time in range (%) LS Mean Difference (SE) [9]: 6.335 (3.8492) %
- A1C (%) LS Mean Difference (SE) [10]: −0.21 (0.079) %
- Body weight (kg) LS Mean Difference (SE) [10]: −2.41 (0.324) kg
- SBP (mmHg) LS Mean Difference (SE) [10]: −3.7 (1.08) mmHg
- 2-hour postprandial plasma glucose (mg/dL) LS Mean Difference (SE) [11]: −21.7 (13.93) mg/dL
- A1C (%) LS Mean Difference (SE) [11]: −0.45 (0.045) %
- Body weight (kg) LS Mean Difference (SE) [11]: −3.32 (0.270) kg
- DDS2 (score) LS Mean Difference (SE) [11]: −0.7 (0.13) score
- DTSQ (score) LS Mean Difference (SE) [11]: 2.6 (0.35) score
- Fasting plasma glucose (mg/dL) LS Mean Difference (SE) [11]: −25.0 (4.53) mg/dL
- SBP (mmHg) LS Mean Difference (SE) [11]: −2.5 (0.87) mmHg
- Time in range (%) LS Mean Difference (SE) [11]: 15.051 (2.8562) %
- A1C (%) LS Mean Difference (SE) [12]: −0.38 (0.055) %
- Body weight (kg) LS Mean Difference (SE) [12]: −4.46 (0.353) kg
- SBP (mmHg) LS Mean Difference (SE) [12]: −3.6 (0.89) mmHg
- 2-hour postprandial plasma glucose (mg/dL) LS Mean change (SE) [13]: −69.6 (17.34) mg/dL
- A1C (%) LS Mean change (SE) [13]: −0.34 (0.048) %
- Body weight (kg) LS Mean change (SE) [13]: −1.91 (0.181) kg
- DDS2 (score) LS Mean change (SE) [13]: −0.4 (0.13) score
- DTSQ (score) LS Mean change (SE) [13]: 1.5 (0.33) score
- Fasting plasma glucose (mg/dL) LS Mean change (SE) [13]: −11.5 (4.32) mg/dL
- SBP (mmHg) LS Mean change (SE) [13]: −3.4 (0.75) mmHg
- Time in range (%) LS Mean change (SE) [13]: 4.164 (2.9683) %
- A1C (%) LS Mean change (SE) (400 mg, Baseline BMI <27 kg/m^2, Week 52): −0.20 (0.057) %
